Source: the supplement of paper PMC11451515

Columns and labels:
Settings in all cases: 48 h
NOMO1 [1] = experiment: cell viability relative to DMSO control; higher = less cytotoxic
Method in brief: (§1)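 NOMO1, SEM and P12-Ichikawa leukemia cells spent at least four passages adapting to each medium before use. They were seeded at 500 cells/well (NOMO1, SEM) or 1000 cells/well (P12-Ichikawa) in 5 μl in 1536-well plates and pin-dosed with library compounds in DMSO at 11 threefold steps from 47 μM down to 0.79 nM. After 48 h at 37°C, CellTiter-Glo One luminescence was read. Viability is reported as a percentage of the DMSO wells on each plate, with cell-free wells as background.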

P12-Ichikawa [2] = experiment: as above
Method in brief: as §1

SEM cells [3] = experiment: as above
Method in brief: as §1

NOMO1 [4] = experiment: AUC of viability dose-response curve (% viability x log10 dose units); higher = less sensitive
Method in brief: (§2)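 Viability of medium-adapted leukemia cells was measured by CellTiter-Glo One luminescence after 48 h at 37°C with library compounds in DMSO. Doses were 11 threefold steps from 47 μM to 0.79 nM, in 1536-well plates at 500 or 1000 cells/well. Signals were normalised per plate to DMSO and cell-free wells and fitted with a four-parameter log-logistic model on log10 dose. Area under the curve was integrated by trapezoidal rule, with curves exceeding full viability scaled and failed quality-control curves removed.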

P12-Ichikawa [5] = experiment: as above
Method in brief: as §2

SEM cells [6] = experiment: as above
Method in brief: as §2

Cc1c[nH]c(-c2cnc(NCCNc3ccc(C#N)cn3)nc2-c2ccc(Cl)cc2Cl)n1
cell viability [%]
Settings	NOMO1 [1]	P12-Ichikawa [2]	SEM cells [3]
HPLM + 10% dialyzed FBS, 0.000781 µM	72.9	75.2	62.7
HPLM + 10% dialyzed FBS, 0.00234 µM	85.8	83.3	74.5
HPLM + 10% dialyzed FBS, 0.00702 µM	94.2	80.6	62
HPLM + 10% dialyzed FBS, 0.0211 µM	78.5	88.1	65.9
HPLM + 10% dialyzed FBS, 0.0632 µM	87.3	87.7	65.2
HPLM + 10% dialyzed FBS, 0.19 µM	101	88.9	70.5
HPLM + 10% dialyzed FBS, 0.569 µM	89.5	88.3	45.3
HPLM + 10% dialyzed FBS, 1.71 µM	93.3	94.3	71.5
HPLM + 10% dialyzed FBS, 5.12 µM	80.3	91.2	19.6
HPLM + 10% dialyzed FBS, 15.4 µM	67.5	91.1	26.8
HPLM + 10% dialyzed FBS, 46.1 µM	57.7	16.4	2.9
RPMI 5 mM glucose + 10% FBS, 0.000781 µM	66.4	67.6	74.9
RPMI 5 mM glucose + 10% FBS, 0.00234 µM	79.7	82.5	93.6
RPMI 5 mM glucose + 10% FBS, 0.00702 µM	83.7	77.7	70.9
RPMI 5 mM glucose + 10% FBS, 0.0211 µM	80.7	78.7	87.6
RPMI 5 mM glucose + 10% FBS, 0.0632 µM	96.7	79.9	85.2
RPMI 5 mM glucose + 10% FBS, 0.19 µM	83.5	80.6	101
RPMI 5 mM glucose + 10% FBS, 0.569 µM	77.5	78.9	66.9
RPMI 5 mM glucose + 10% FBS, 1.71 µM	85.7	83.5	86.4
RPMI 5 mM glucose + 10% FBS, 5.12 µM	76.5	75	34.9
RPMI 5 mM glucose + 10% FBS, 15.4 µM	81.3	89.1	68.8
RPMI 5 mM glucose + 10% FBS, 46.1 µM	64.2	24.8	4.99
RPMI 5 mM glucose + 10% dialyzed FBS, 0.000781 µM	76.7	75.1	70.2
RPMI 5 mM glucose + 10% dialyzed FBS, 0.00234 µM	80.8	85.3	80.9
RPMI 5 mM glucose + 10% dialyzed FBS, 0.00702 µM	90.1	80.2	59.9
RPMI 5 mM glucose + 10% dialyzed FBS, 0.0211 µM	89.2	80	67
RPMI 5 mM glucose + 10% dialyzed FBS, 0.0632 µM	83.6	81	69.6
RPMI 5 mM glucose + 10% dialyzed FBS, 0.19 µM	90.2	82.2	72.2
RPMI 5 mM glucose + 10% dialyzed FBS, 0.569 µM	85.9	78.8	52.9
RPMI 5 mM glucose + 10% dialyzed FBS, 1.71 µM	94.6	80.6	84
RPMI 5 mM glucose + 10% dialyzed FBS, 5.12 µM	64.8	84.1	24
RPMI 5 mM glucose + 10% dialyzed FBS, 15.4 µM	88	92.9	33.7
RPMI 5 mM glucose + 10% dialyzed FBS, 46.1 µM	64.7	29.9	3.76

AUC of viability dose-response curve
Settings	HPLM + 10% dialyzed FBS	RPMI 5 mM glucose + 10% FBS	RPMI 5 mM glucose + 10% dialyzed FBS
NOMO1 [4]	398	381	396
P12-Ichikawa [5]	397	366	379

CO/N=C(/C(=O)N[C@@H]1C(=O)N2C(C(=O)O)=C(CSC(=O)c3ccco3)CS[C@H]12)c1csc(N)n1
cell viability [%]
Settings	NOMO1 [1]	P12-Ichikawa [2]	SEM cells [3]
HPLM + 10% dialyzed FBS, 0.000781 µM	81.5	100	62.8
HPLM + 10% dialyzed FBS, 0.00234 µM	106	108	72.5
HPLM + 10% dialyzed FBS, 0.00702 µM	116	112	71.3
HPLM + 10% dialyzed FBS, 0.0211 µM	102	119	68.5
HPLM + 10% dialyzed FBS, 0.0632 µM	113	109	77.7
HPLM + 10% dialyzed FBS, 0.19 µM	103	111	76.5
HPLM + 10% dialyzed FBS, 0.569 µM	109	116	82.3
HPLM + 10% dialyzed FBS, 1.71 µM	85.5	118	77.6
HPLM + 10% dialyzed FBS, 5.12 µM	64.8	113	76.9
HPLM + 10% dialyzed FBS, 15.4 µM	53	109	88.4
HPLM + 10% dialyzed FBS, 46.1 µM	48.8	110	74.8
RPMI 5 mM glucose + 10% FBS, 0.000781 µM	89.4	98.1	77.5
RPMI 5 mM glucose + 10% FBS, 0.00234 µM	104	100	86.9
RPMI 5 mM glucose + 10% FBS, 0.00702 µM	99.4	117	89.6
RPMI 5 mM glucose + 10% FBS, 0.0211 µM	98.6	107	91.3
RPMI 5 mM glucose + 10% FBS, 0.0632 µM	103	105	97.8
RPMI 5 mM glucose + 10% FBS, 0.19 µM	103	106	102
RPMI 5 mM glucose + 10% FBS, 0.569 µM	109	98.6	106
RPMI 5 mM glucose + 10% FBS, 1.71 µM	92.5	104	105
RPMI 5 mM glucose + 10% FBS, 5.12 µM	90.9	98.9	90.6
RPMI 5 mM glucose + 10% FBS, 15.4 µM	73.8	103	108
RPMI 5 mM glucose + 10% FBS, 46.1 µM	77.2	96.2	103
RPMI 5 mM glucose + 10% dialyzed FBS, 0.000781 µM	82.9	95.6	89.1
RPMI 5 mM glucose + 10% dialyzed FBS, 0.00234 µM	97.4	104	93.8
RPMI 5 mM glucose + 10% dialyzed FBS, 0.00702 µM	99.9	112	107
RPMI 5 mM glucose + 10% dialyzed FBS, 0.0211 µM	111	108	117
RPMI 5 mM glucose + 10% dialyzed FBS, 0.0632 µM	104	112	93
RPMI 5 mM glucose + 10% dialyzed FBS, 0.19 µM	101	109	107
RPMI 5 mM glucose + 10% dialyzed FBS, 0.569 µM	111	104	118
RPMI 5 mM glucose + 10% dialyzed FBS, 1.71 µM	103	103	111
RPMI 5 mM glucose + 10% dialyzed FBS, 5.12 µM	82.5	102	120
RPMI 5 mM glucose + 10% dialyzed FBS, 15.4 µM	81.3	107	123
RPMI 5 mM glucose + 10% dialyzed FBS, 46.1 µM	58.5	104	113

AUC of viability dose-response curve
Settings	HPLM + 10% dialyzed FBS	RPMI 5 mM glucose + 10% FBS	RPMI 5 mM glucose + 10% dialyzed FBS
NOMO1 [4]	413	453	449
P12-Ichikawa [5]	472	464	476

C=CCO/N=C(/C[C@H]1O[C@@H]2O[C@]3(C)CC[C@H]4[C@H](C)CC[C@@H]([C@H]1C)[C@@]24OO3)[C@H]1O[C@@H]2O[C@]3(C)CC[C@H]4[C@H](C)CC[C@@H]([C@H]1C)[C@@]24OO3
AUC of viability dose-response curve
Settings	NOMO1 [4]	P12-Ichikawa [5]	SEM cells [6]
HPLM + 10% dialyzed FBS	347	397	350
RPMI 5 mM glucose + 10% FBS	340	357	329
RPMI 5 mM glucose + 10% dialyzed FBS	338	359	328

COC(=O)N1CC2(CC2)C[C@H](C(=O)NO)[C@H]1C(=O)N1CCN(c2ccccc2)CC1
cell viability [%]
Settings	P12-Ichikawa [2]	SEM cells [3]
HPLM + 10% dialyzed FBS, 0.000781 µM	122	110
HPLM + 10% dialyzed FBS, 0.00234 µM	133	128
HPLM + 10% dialyzed FBS, 0.00702 µM	119	123
HPLM + 10% dialyzed FBS, 0.0211 µM	125	116
HPLM + 10% dialyzed FBS, 0.0632 µM	117	128
HPLM + 10% dialyzed FBS, 0.19 µM	114	121
HPLM + 10% dialyzed FBS, 0.569 µM	24.5	113
HPLM + 10% dialyzed FBS, 1.71 µM	30.1	40.3
HPLM + 10% dialyzed FBS, 5.12 µM	16.7	19.8
HPLM + 10% dialyzed FBS, 15.4 µM	10.6	16.5
HPLM + 10% dialyzed FBS, 46.1 µM	7.08	6.78
RPMI 5 mM glucose + 10% FBS, 0.000781 µM	121	–
RPMI 5 mM glucose + 10% FBS, 0.00234 µM	132	–
RPMI 5 mM glucose + 10% FBS, 0.00702 µM	119	–
RPMI 5 mM glucose + 10% FBS, 0.0211 µM	129	–
RPMI 5 mM glucose + 10% FBS, 0.0632 µM	136	–
RPMI 5 mM glucose + 10% FBS, 0.19 µM	143	–
RPMI 5 mM glucose + 10% FBS, 0.569 µM	122	–
RPMI 5 mM glucose + 10% FBS, 1.71 µM	99.6	–
RPMI 5 mM glucose + 10% FBS, 5.12 µM	14.2	–
RPMI 5 mM glucose + 10% FBS, 15.4 µM	9.97	–
RPMI 5 mM glucose + 10% FBS, 46.1 µM	7.58	–

AUC of viability dose-response curve
Settings	HPLM + 10% dialyzed FBS	RPMI 5 mM glucose + 10% FBS	RPMI 5 mM glucose + 10% dialyzed FBS
NOMO1 [4]	297	310	373
P12-Ichikawa [5]	290	357	324

C[C@H]1O[C@H]([C@H](O)[C@@H]1O)N2\C=C(F)/C(=O)NC2=O
AUC of viability dose-response curve
Settings	NOMO1 [4]	P12-Ichikawa [5]	SEM cells [6]
HPLM + 10% dialyzed FBS	441	443	460
RPMI 5 mM glucose + 10% FBS	460	440	454
RPMI 5 mM glucose + 10% dialyzed FBS	444	442	436

O=C(O)CCCc1c[nH]c2ccccc12
SEM cells [3], HPLM + 10% dialyzed FBS
Settings	cell viability [%]
0.000781 µM	111
0.00234 µM	122
0.00702 µM	130
0.0211 µM	144
0.0632 µM	105
0.19 µM	113
0.569 µM	102
1.71 µM	124
5.12 µM	138
15.4 µM	131
46.1 µM	97.9

AUC of viability dose-response curve
Settings	HPLM + 10% dialyzed FBS	RPMI 5 mM glucose + 10% FBS	RPMI 5 mM glucose + 10% dialyzed FBS
P12-Ichikawa [5]	468	431	452
SEM cells [6]	468	441	431

CC(=O)NCC(=O)N1[C@@H]2CC[C@H]1c1ccc(Nc3ncc(C(F)(F)F)c(NC4CCC4)n3)cc12
AUC of viability dose-response curve
Settings	NOMO1 [4]	P12-Ichikawa [5]	SEM cells [6]
HPLM + 10% dialyzed FBS	358	258	247
RPMI 5 mM glucose + 10% FBS	344	268	227
RPMI 5 mM glucose + 10% dialyzed FBS	336	290	227
